Reference: PubChem BioAssay (NCI)
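Values below derive from 48-hour exposures of cells grown in 96-well plates, with endpoints linearly interpolated between the two concentrations bracketing the appropriate inhibition level. TGI marks complete inhibition of growth.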

How the values were obtained:
Experiment in all cases: inhibition of tumour cell growth, NCI panel, 48 h
[1] = tested on: 786-0 renal
[2] = tested on: A498 renal
[3] = tested on: A549 NSCLC
[4] = tested on: ACHN renal
[5] = tested on: CAKI-1 renal
[6] = tested on: CCRF-CEM leukemia
[7] = tested on: COLO 205 colon
[8] = tested on: DLD-1 colon
[9] = tested on: DMS 114 small cell lung
[10] = tested on: DMS 273 small cell lung
[11] = tested on: EKVX NSCLC
[12] = tested on: HCC-2998 colon
[13] = tested on: HCT-116 colon
[14] = tested on: HCT-15 colon
[15] = tested on: HOP-18 NSCLC
[16] = tested on: HOP-62 NSCLC
[17] = tested on: HOP-92 NSCLC
[18] = tested on: HT29 colon
[19] = tested on: IGROV1 ovarian
[20] = tested on: K-562 leukemia
[21] = tested on: KM12 colon
[22] = tested on: KM20L2 colon
[23] = tested on: LOX IMVI melanoma
[24] = tested on: M14 melanoma
[25] = tested on: M19-MEL melanoma
[26] = tested on: MALME-3M melanoma
[27] = tested on: MOLT-4 leukemia
[28] = tested on: NCI-H226 lung
[29] = tested on: NCI-H23 lung
[30] = tested on: NCI-H460 lung
[31] = tested on: OVCAR-3 ovarian
[32] = tested on: OVCAR-4 ovarian
[33] = tested on: OVCAR-5 ovarian
[34] = tested on: OVCAR-8 ovarian
[35] = tested on: RPMI-8226 leukemia
[36] = tested on: SF-268 CNS
[37] = tested on: SF-295 CNS
[38] = tested on: SF-539 CNS
[39] = tested on: SK-MEL-2 melanoma
[40] = tested on: SK-MEL-28 melanoma
[41] = tested on: SK-MEL-5 melanoma
[42] = tested on: SK-OV-3 ovarian
[43] = tested on: SN12C renal
[44] = tested on: SNB-19 CNS
[45] = tested on: SNB-75 CNS
[46] = tested on: SNB-78 CNS
[47] = tested on: SW-620 colon
[48] = tested on: TK-10 renal
[49] = tested on: U251 CNS
[50] = tested on: UACC-257 melanoma
[51] = tested on: UACC-62 melanoma
[52] = tested on: UO-31 renal
[53] = tested on: XF 498 CNS
[54] = tested on: HL-60(TB) leukemia
[55] = tested on: LXFL 529 NSCLC
[56] = tested on: NCI-H522 lung
[57] = tested on: RXF 393 renal
[58] = tested on: SR leukemia

## O=C1/C(=C\c2ccccc2)c2ccccc2N1/N=C\c1ccccc1
[1]
  TGI: > 100 µM
[2]
  TGI: > 100 µM
[3]
  TGI: > 100 µM
[4]
  TGI: > 100 µM
[5]
  TGI: > 100 µM
[6]
  TGI: > 100 µM
[7]
  TGI: > 100 µM
[8]
  TGI: > 100 µM
[9]
  TGI: > 100 µM
[10]
  TGI: > 100 µM
[11]
  TGI: > 100 µM
[12]
  TGI: > 100 µM
[13]
  TGI: > 100 µM
[14]
  TGI: > 100 µM
[15]
  TGI: > 100 µM
[16]
  TGI: > 100 µM
[17]
  TGI: > 100 µM
[18]
  TGI: > 100 µM
[19]
  TGI: > 100 µM
[20]
  TGI: > 100 µM
[21]
  TGI: > 100 µM
[22]
  TGI: > 100 µM
[23]
  TGI: > 100 µM
[24]
  TGI: > 100 µM
[25]
  TGI: > 100 µM
[26]
  TGI: > 100 µM
[27]
  TGI: > 100 µM
[28]
  TGI: > 100 µM
[29]
  TGI: > 100 µM
[30]
  TGI: > 100 µM
[31]
  TGI: > 100 µM
[32]
  TGI: > 100 µM
[33]
  TGI: > 100 µM
[34]
  TGI: > 100 µM
[35]
  TGI: > 100 µM
[36]
  TGI: > 100 µM
[37]
  TGI: > 100 µM
[38]
  TGI: > 100 µM
[39]
  TGI: > 100 µM
[40]
  TGI: > 100 µM
[41]
  TGI: > 100 µM
[42]
  TGI: > 100 µM
[43]
  TGI: > 100 µM
[44]
  TGI: > 100 µM
[45]
  TGI: > 100 µM
[46]
  TGI: > 100 µM
[47]
  TGI: > 100 µM
[48]
  TGI: > 100 µM
[49]
  TGI: > 100 µM
[50]
  TGI: > 100 µM
[51]
  TGI: > 100 µM
[52]
  TGI: > 100 µM
[53]
  TGI: > 100 µM

## O=C1Cc2ccccc2CCc2ccsc21
[1]
  TGI: > 100 µM
[2]
  TGI: > 100 µM
[3]
  TGI: > 100 µM
[5]
  TGI: > 100 µM
[6]
  TGI: > 100 µM
[7]
  TGI: > 100 µM
[8]
  TGI: > 100 µM
[10]
  TGI: > 100 µM
[11]
  TGI: > 100 µM
[12]
  TGI: > 100 µM
[13]
  TGI: > 100 µM
[14]
  TGI: > 100 µM
[54]
  TGI: > 100 µM
[15]
  TGI: > 100 µM
[17]
  TGI: > 100 µM
[18]
  TGI: > 100 µM
[19]
  TGI: > 100 µM
[20]
  TGI: > 100 µM
[21]
  TGI: > 100 µM
[22]
  TGI: > 100 µM
[23]
  TGI: > 100 µM
[55]
  TGI: > 100 µM
[24]
  TGI: > 100 µM
[25]
  TGI: > 100 µM
[26]
  TGI: > 100 µM
[27]
  TGI: > 100 µM
[28]
  TGI: > 100 µM
[29]
  TGI: > 100 µM
[30]
  TGI: > 100 µM
[56]
  TGI: > 100 µM
[31]
  TGI: > 100 µM
[32]
  TGI: > 100 µM
[33]
  TGI: > 100 µM
[34]
  TGI: > 100 µM
[35]
  TGI: > 100 µM
[57]
  TGI: > 100 µM
[36]
  TGI: > 100 µM
[37]
  TGI: > 100 µM
[38]
  TGI: > 100 µM
[39]
  TGI: > 100 µM
[40]
  TGI: > 100 µM
[41]
  TGI: > 100 µM
[42]
  TGI: > 100 µM
[43]
  TGI: > 100 µM
[44]
  TGI: > 100 µM
[45]
  TGI: > 100 µM
[46]
  TGI: > 100 µM
[58]
  TGI: > 100 µM
[47]
  TGI: > 100 µM
[48]
  TGI: > 100 µM
[49]
  TGI: > 100 µM
[50]
  TGI: > 100 µM
[52]
  TGI: > 100 µM
[53]
  TGI: > 100 µM

## Cc1nc2nn(C)cc2c(=O)n1/N=C/c1ccccc1
[1]
  TGI: > 100 µM
[2]
  TGI: > 100 µM
[3]
  TGI: > 100 µM
[4]
  TGI: > 100 µM
[6]
  TGI: > 100 µM
[7]
  TGI: > 100 µM
[8]
  TGI: > 100 µM
[9]
  TGI: > 100 µM
[10]
  TGI: > 100 µM
[11]
  TGI: > 100 µM
[12]
  TGI: > 100 µM
[13]
  TGI: > 100 µM
[14]
  TGI: > 100 µM
[54]
  TGI: > 100 µM
[15]
  TGI: > 100 µM
[16]
  TGI: > 100 µM
[18]
  TGI: > 100 µM
[19]
  TGI: > 100 µM
[20]
  TGI: > 100 µM
[21]
  TGI: > 100 µM
[22]
  TGI: > 100 µM
[23]
  TGI: > 100 µM
[25]
  TGI: > 100 µM
[26]
  TGI: > 100 µM
[27]
  TGI: > 100 µM
[28]
  TGI: > 100 µM
[29]
  TGI: > 100 µM
[30]
  TGI: > 100 µM
[56]
  TGI: > 100 µM
[31]
  TGI: > 100 µM
[32]
  TGI: > 100 µM
[33]
  TGI: > 100 µM
[34]
  TGI: > 100 µM
[35]
  TGI: > 100 µM
[57]
  TGI: > 100 µM
[36]
  TGI: > 100 µM
[37]
  TGI: > 100 µM
[38]
  TGI: > 100 µM
[39]
  TGI: > 100 µM
[40]
  TGI: > 100 µM
[41]
  TGI: > 100 µM
[42]
  TGI: > 100 µM
[43]
  TGI: > 100 µM
[44]
  TGI: > 100 µM
[45]
  TGI: > 100 µM
[46]
  TGI: > 100 µM
[58]
  TGI: > 100 µM
[47]
  TGI: > 100 µM
[48]
  TGI: > 100 µM
[49]
  TGI: > 100 µM
[50]
  TGI: > 100 µM
[51]
  TGI: > 100 µM
[52]
  TGI: > 100 µM
[53]
  TGI: > 100 µM

## O=c1cc(-c2ccc(O)cc2)oc2cc(O)cc(O)c12
[1]
  TGI: > 100 µM
[3]
  TGI: > 100 µM
[4]
  TGI: 30.3 µM
[6]
  TGI: > 100 µM
[7]
  TGI: > 100 µM
[9]
  TGI: > 100 µM
[10]
  TGI: 40.2 µM
[11]
  TGI: 96.9 µM
[12]
  TGI: 56.8 µM
[13]
  TGI: > 100 µM
[14]
  TGI: > 100 µM
[54]
  TGI: > 100 µM
[16]
  TGI: > 100 µM
[17]
  TGI: 56.6 µM
[19]
  TGI: 80 µM
[20]
  TGI: > 100 µM
[21]
  TGI: 82.9 µM
[22]
  TGI: 88.2 µM
[23]
  TGI: 86.6 µM
[55]
  TGI: 37.3 µM
[24]
  TGI: > 100 µM
[25]
  TGI: > 100 µM
[26]
  TGI: 88.3 µM
[27]
  TGI: 88.4 µM
[28]
  TGI: 75.9 µM
[29]
  TGI: 46.6 µM
[30]
  TGI: > 100 µM
[56]
  TGI: 64.5 µM
[31]
  TGI: 91.9 µM
[32]
  TGI: > 100 µM
[33]
  TGI: 68 µM
[35]
  TGI: > 100 µM
[36]
  TGI: 83.9 µM
[37]
  TGI: 83.4 µM
[39]
  TGI: 80.3 µM
[40]
  TGI: 59.1 µM
[41]
  TGI: 87.2 µM
[42]
  TGI: 89.8 µM
[43]
  TGI: > 100 µM
[44]
  TGI: > 100 µM
[45]
  TGI: 43.7 µM
[46]
  TGI: 39.5 µM
[58]
  TGI: > 100 µM
[48]
  TGI: > 100 µM
[49]
  TGI: > 100 µM
[50]
  TGI: 73.9 µM
[51]
  TGI: > 100 µM
[52]
  TGI: 56.4 µM
[53]
  TGI: 61.6 µM
